Read-outs that look alike come from different tables or passages of the source. Values belong to the compound of their own block, whether it stands above or below them.
Key:
[1] = biological target: T1, recombinant human ACE2 (rhACE2) (Homo sapiens, UniProt Q9BYF1); assay: MLN-4760 inhibition of rhACE2 metabolism of angiotensin peptides; assay type: biochemical
ACE2 = conditions: read-out: half maximum inhibitory concentration (IC50); cited from earlier work
[2] = biological target: T1, recombinant human ACE2 (rhACE2); assay: Zinc inhibition of rhACE2 metabolism of Ang II to Ang 1–7; assay type: biochemical
[3] = tested on: Human neutrophil collagenase (matrix metalloproteinase 8, MMP8); conditions: 10 mM zinc; activity increases up to 100 μM zinc; cited from earlier work
[4] = biological target: T1, recombinant human ACE2 (rhACE2); conditions: pH 7.0
[5] = tested on: CC[C@H](C)[C@H](NC(=O)[C@H](Cc1ccc(O)cc1)NC(=O)[C@@H](NC(=O)[C@H](CCCNC(=N)N)NC(=O)[C@@H](N)CC(=O)O)C(C)C)C(=O)N[C@@H](Cc1cnc[nH]1)C(=O)N1CCC[C@H]1C(=O)N[C@@H](Cc1ccccc1)C(=O)O; assay type: biochemical, human; conditions: other: average of the two series (Tables 2 and 3), Ang II to Ang 1–7

T1 sequence (Q9BYF1 18-740 limits assumed): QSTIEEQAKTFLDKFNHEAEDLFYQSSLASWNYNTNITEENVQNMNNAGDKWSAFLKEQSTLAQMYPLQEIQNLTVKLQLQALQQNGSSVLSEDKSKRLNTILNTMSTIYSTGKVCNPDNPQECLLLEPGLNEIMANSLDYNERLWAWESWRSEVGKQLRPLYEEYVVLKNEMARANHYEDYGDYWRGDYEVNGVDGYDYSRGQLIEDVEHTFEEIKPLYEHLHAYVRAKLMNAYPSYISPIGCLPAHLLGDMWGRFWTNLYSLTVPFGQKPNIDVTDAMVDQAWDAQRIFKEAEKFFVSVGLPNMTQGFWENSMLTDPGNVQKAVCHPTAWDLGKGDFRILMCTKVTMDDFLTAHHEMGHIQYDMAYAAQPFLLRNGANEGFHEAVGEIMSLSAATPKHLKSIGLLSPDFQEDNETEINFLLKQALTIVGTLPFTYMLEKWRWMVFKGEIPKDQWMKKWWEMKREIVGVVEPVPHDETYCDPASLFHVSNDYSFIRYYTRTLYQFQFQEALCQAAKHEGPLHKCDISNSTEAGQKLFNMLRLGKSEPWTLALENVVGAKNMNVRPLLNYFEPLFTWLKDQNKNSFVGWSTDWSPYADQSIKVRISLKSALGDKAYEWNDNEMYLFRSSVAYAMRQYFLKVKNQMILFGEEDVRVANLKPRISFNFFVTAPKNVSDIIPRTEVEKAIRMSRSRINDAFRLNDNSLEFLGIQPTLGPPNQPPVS

inhibition of metabolism of Ang II to Ang 1–7 ([1]; 1 μM MLN-4760): nearly all
inhibition at 1 µM ([1]; read-out: inhibition of rhACE2 activity): ~90%
Compound: CC(C)C[C@H](N[C@@H](Cc1cncn1Cc1cc(Cl)cc(Cl)c1)C(=O)O)C(=O)O [MLN-4760]
IC50 (ACE2): 0.0004 µM

Compound: CC(=O)[O-].CC(=O)[O-].[Zn+2] [zinc, zinc acetate]
inhibition of ACE2 activity ([2]; 1 mM zinc): completely
IC50 ([2]; read-out: IC50 for inhibition of rhACE2 metabolism of Ang II to Ang 1–7, zinc 1 to 1000 μM, 100 μM Ang II, rhACE2 48.4 ng/ml (569 pM), 50 mM Hepes, 100 mM NaCl, pH 7.0, 30 min, 37°C, mean ± SEM, n=2): 69.1 ± 1.1 µM
collagenase activity remaining [3]: ~ 20%
Log IC50 for inhibition of rhACE2 metabolism of Mca-APK(dnp) ([4]; HEPES buffer): −3.77
Log IC50 for inhibition of rhACE2 metabolism of Mca-APK(dnp) ([4]; MES buffer): −3.85
Log IC50 for inhibition of rhACE2 metabolism of Mca-APK(dnp) ([4]; Tris buffer): −3.82

Compound: recombinant human ACE2 (rhACE2) (Homo sapiens)
Km [5]: 8.47 µM
kcat/Km [5]: 1.02 μM^−1,sec^−1
